One compound from patent US20100197688A1, “EPHA4 RTK INHIBITORS FOR TREATMENT OF NEUROLOGICAL AND NEURODEGENERATIVE DISORDERS AND CANCER” (priority 2008, published 2010) can be followed below.

Data set [1] deals with Primary Rat cortical astrocytes. The data set can be described thus: Scratch wound assay, astrocytes. Format: cell-based. As to the method: Primary Rat cortical astrocytes were purchased from Lonza (Walkersvelle Inc., MA, USA). Cells were plated in culture flasks at a density of 1.106-3.106 cells/ml, and maintained at 37° C. and […], in Astrocyte Growth Medium Bulletkit™ (Lonza Walkersville Inc., MA, USA). When astrocyte cultures reached confluence, cells were trypsinized and replated at 6.105 cells/ml onto 24 well ImageLock™ plate (Essen Instruments, Mich., USA).
Scratch wound assays are commonly used to assess the effects of drugs and drug candidates on the cellular proliferation and/or migration associated with wound closing. The IncuCyte™ system (Essen Instruments, Mich., USA), an automated imaging platform, provides ongoing, real-time images and quantitative data generated throughout the wound-closing process. […] Wound closure can be automatically monitored using the wound confluence (% confluence). […]
The calculation of the area under the curve (AUC) of the % confluence function of the time gave a quantitative measurement of compounds efficacy on the scratch wound closing. […] The percentage of inhibition was calculated from the AUCs at each dose in comparison with the AUCs of the control wells (1% DMSO). Concentration-response curves were represented and the concentrations at the inflexion point (IP) were calculated. […]

The test system is the same in data set [2]. As to the kind of experiment: Toxicity (percent of cell death), astrocytes. It is filed as cell-based. The conditions noted are these: 20 μM. As to the method: EphA4 kinase inhibition is assessed by both an enzymatic assay measuring the phosphorylation of a purified recombinant EphA4 kinase and a cell-based assay using the activation of pGas-Luciferase system in EphA4-transfected CHO-K1 cells. The functional effects of EphA4 RTK inhibitors on cell motility and proliferation is evaluated by the scratch wound assay. The effect of EphA4 RTK inhibitors is also directly measured on the cell confluence. The counterscreen assays (cell counterscreen, Src, Jak2 and P38α kinase) identified other potential inhibitory activities of compounds unrelated to EphA4 kinase. The toxicity is measured by the percent of cell death in the different cell assays. Values represent IC50 and IP in μM calculated from the dose-response curves. Values in parentheses give the maximum percent inhibition.

In the case of `Cc1ccc(NC(=O)c2cccc(C(F)(F)F)c2)cc1-c1ccc(O)c(NC=O)c1` [Example 133], the IC50 in data set [1] (Rattus norvegicus, Astrocyte, inflexion point, from AUC of % wound confluence, read-out: Scratch Assay Astrocytes IP) came out at 5 µM. In addition, in data set [1] (value in parentheses), the “Scratch Assay Astrocytes max inhibition in %” value is 50%. The “Max Toxicity Astrocytes % of cell death” value in data set [2] turned out to be 0% 20 μM.
